Assays:
[1] = target: hERG (Homo sapiens, UniProt Q12809)
[2] = system: Na,K-ATPase α4 isoform; conditions: higher than that of the ubiquitous α1 isoform; cited from earlier work

Chain of hERG (Q12809 whole entry, canonical isoform): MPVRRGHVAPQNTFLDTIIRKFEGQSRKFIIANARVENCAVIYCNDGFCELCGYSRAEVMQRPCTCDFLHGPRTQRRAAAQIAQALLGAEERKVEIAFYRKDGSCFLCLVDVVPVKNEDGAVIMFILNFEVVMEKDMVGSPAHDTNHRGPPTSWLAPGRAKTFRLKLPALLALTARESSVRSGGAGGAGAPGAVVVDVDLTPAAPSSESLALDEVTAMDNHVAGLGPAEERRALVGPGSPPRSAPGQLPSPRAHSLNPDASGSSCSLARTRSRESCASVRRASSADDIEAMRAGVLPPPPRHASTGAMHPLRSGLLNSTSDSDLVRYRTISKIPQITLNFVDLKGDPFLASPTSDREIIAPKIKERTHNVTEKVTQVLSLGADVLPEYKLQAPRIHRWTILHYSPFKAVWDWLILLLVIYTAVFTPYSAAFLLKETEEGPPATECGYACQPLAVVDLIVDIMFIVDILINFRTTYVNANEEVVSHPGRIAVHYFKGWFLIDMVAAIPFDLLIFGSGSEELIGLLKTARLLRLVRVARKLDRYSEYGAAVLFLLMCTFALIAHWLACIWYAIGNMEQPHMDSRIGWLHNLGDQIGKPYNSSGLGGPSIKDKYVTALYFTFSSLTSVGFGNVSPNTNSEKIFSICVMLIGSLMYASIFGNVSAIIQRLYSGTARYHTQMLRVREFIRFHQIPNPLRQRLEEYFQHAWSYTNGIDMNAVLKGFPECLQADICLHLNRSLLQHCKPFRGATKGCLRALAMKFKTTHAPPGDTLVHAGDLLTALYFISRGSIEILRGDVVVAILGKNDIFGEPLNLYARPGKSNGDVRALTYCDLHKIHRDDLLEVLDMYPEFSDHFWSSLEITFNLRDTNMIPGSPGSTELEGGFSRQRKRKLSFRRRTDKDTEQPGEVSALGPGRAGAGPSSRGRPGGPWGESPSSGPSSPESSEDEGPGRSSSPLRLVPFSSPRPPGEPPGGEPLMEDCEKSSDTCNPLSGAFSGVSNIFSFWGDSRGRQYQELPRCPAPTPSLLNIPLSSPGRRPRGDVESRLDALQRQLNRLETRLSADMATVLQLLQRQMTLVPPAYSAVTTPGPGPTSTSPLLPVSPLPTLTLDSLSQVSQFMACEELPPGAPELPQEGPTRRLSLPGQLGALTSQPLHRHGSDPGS

Row | melting point | SMILES | effect on hERG [1] | affinity for ouabain of α4 relative to the α1 isoform [2]
1 | 129 to 135 °C | COCO[C@H]1C[C@H]2OC(C)(C)OC[C@]23C2C(CC[C@]3(O)C1)[C@@]1(OCOC)CC[C@H](C=O)[C@@]1(C)C[C@H]2OCOC (stereo partly shown) |  | 
2 | 195 to 197 °C | CC(C)[C@H](N)C(=O)O[C@H]1CC[C@@]2(C)C(=CCC3C2CC[C@@]2(C)C3CC[C@@H]2c2cn(Cc3ccccc3)nn2)C1 (stereo partly shown) |  | 
3 | 154 to 158 °C | COCO[C@H]1C[C@H]2OC(C)(C)OC[C@]23C2C(CC[C@]3(O)C1)[C@@]1(OCOC)CC[C@H](CO)[C@@]1(C)C[C@H]2OCOC (stereo partly drawn) [Compound 22, (3S,3aR,5R,5bR,9aR,11S,12aS,14bS)-3-(hydroxymethyl)-5,11,14b-tris(methoxymethoxy)-3a,8,8-trimethylhexadecahydro-1H-cyclopenta[7,8]phenanthro[4,4a-d][1,3]dioxin-12a-ol] |  | 
4 | 286 to 287 °C | C[C@]12CCC3C(CC=C4C[C@@H](O)CC[C@@]43C)[C@@H]1CC[C@@H]2C1=CC(=O)OC1 (stereo in doubt) |  | 
5 | 221 to 223 °C | COC(=O)Cn1cc([C@H]2CCC3C4CC=C5C[C@@H](O)CC[C@]5(C)C4CC[C@@]32C)nn1 (stereo partly shown) |  | 

Second part, the compound before the results:

Row | SMILES | melting point | effect on hERG [1] | affinity for ouabain of α4 relative to the α1 isoform [2]
6 | COCO[C@@H]1[C@H]2OC(C)(C)O[C@H]2[C@H](O[C@H]2C[C@H]3OC(C)(C)OC[C@]34C3C(CC[C@]4(O)C2)[C@@]2(O)CC[C@H](CO)[C@@]2(C)C[C@H]3OCOC)O[C@H]1C (stereo partly drawn) [Compound 10, (3S,3aR,5R,5bR,9aR,11S,12aS,14bS)-3-(hydroxymethyl)-5-(methoxymethoxy)-11-(((3aR,4R,6S,7S,7aR)-7-(methoxymethoxy)-2,2,6-trimethyltetrahydro-3aH-[1,3]dioxolo[4,5-c]pyran-4-yl)oxy)-3a,8,8-trimethylhexadecahydro-1H-cyclopenta[7,8]phenanthro[4,4a-d][1,3]dioxine-12a,14b-diol] | 126 to 129 °C |  | 
7 | COCO[C@@H]1[C@H]2OC(C)(C)O[C@H]2[C@H](O[C@H]2C[C@H]3OC(C)(C)OC[C@]34C3C(CC[C@]4(O)C2)[C@@]2(O)CC[C@H](C(O)CO)[C@@]2(C)C[C@H]3OCOC)O[C@H]1C (stereo partly drawn) [Compound 3, (3S,3aR,5R,5bR,9aR,11S,12aS,14bS)-3-(1,2-dihydroxyethyl)-5-(methoxymethoxy)-11-(((3aR,4R,6S,7S,7aR)-7-(methoxymethoxy)-2,2,6-trimethyltetrahydro-3aH-[1,3]dioxolo[4,5-c]pyran-4-yl)oxy)-3a,8,8-trimethylhexadecahydro-1H-cyclopenta[7,8]phenanthro[4,4a-d][1,3]dioxine-12a,14b-diol] | 119 to 121 °C |  | 
8 | COCO[C@@H]1[C@H]2OC(C)(C)O[C@H]2[C@H](O[C@H]2C[C@H]3OC(C)(C)OC[C@]34C3C(CC[C@]4(O)C2)[C@@]2(O)CC[C@H](C#N)[C@@]2(C)C[C@H]3OCOC)O[C@H]1C (stereo partly drawn) [Compound 11, (3S,3aR,5R,5bR,9aR,11S,12aS,14bS)-12a,14b-dihydroxy-5-(methoxymethoxy)-11-(((3aR,4R,6S,7S,7aR)-7-(methoxymethoxy)-2,2,6-trimethyltetrahydro-3aH-[1,3]dioxolo[4,5-c]pyran-4-yl)oxy)-3a,8,8-trimethylhexadecahydro-1H-cyclopenta[7,8]phenanthro[4,4a-d][1,3]dioxine-3-carbonitrile] | 97 to 99 °C |  | 
9 | C[C@@H]1O[C@@H](O[C@H]2C[C@@H](O)[C@]3(CO)[C@H]4[C@H](O)C[C@]5(C)[C@@H](C6=CC(=O)OC6)CC[C@]5(O)[C@@H]4CC[C@]3(O)C2)[C@H](O)[C@H](O)[C@H]1O [ouabain] |  | inhibited hERG activity | 10,000 fold
